Results taken from patent US6124269A, “2-Halo-6-O-substituted ketolide derivatives” (priority 1998, dated 2000).
Values after ≈ are worked out from the molar mass of the structure shown.

What was measured:
Type in all cases: cell-based
[1] = system: Staphylococcus aureus A-5278; test: In vitro agar dilution MIC, organism code CC; settings: Table 1B, unit assumed
In short: (§1)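 Agar dilution on Brain Heart Infusion agar holding twelve successive aqueous dilutions of compound; plates inoculated by replicator with 1:100 culture dilutions (1:10 for slow growers such as Streptococcus). Incubated 35-37° C for 20 to 24 hours. MIC is the lowest concentration giving no growth, slight haze or sparse colonies versus growth control.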

[2] = system: Streptococcus pyogenes PIU 2548; test: In vitro agar dilution MIC, organism code NN; settings: Table 1B, unit assumed
In short: as §1

[3] = system: Streptococcus bovis A-5169; test: In vitro agar dilution MIC, organism code JJ; settings: Table 1B, unit assumed
In short: as §1

[4] = system: Enterococcus faecium ATCC 8043; test: In vitro agar dilution MIC, organism code II; settings: Table 1B, unit assumed
In short: as §1

[5] = system: Mycobacterium smegmatis ATCC 114; test: In vitro agar dilution MIC, organism code UU; settings: Table 1B, in µg/mL (unit assumed)
In short: as §1

[6] = system: Staphylococcus aureus 1775; test: In vitro agar dilution MIC, organism code GG; settings: Table 1B, unit assumed
In short: as §1

[7] = system: Streptococcus pneumoniae GYR 1171; test: In vitro agar dilution MIC, organism code YY; settings: Table 1B, unit assumed
In short: as §1

[8] = system: Staphylococcus epidermidis 3519; test: In vitro agar dilution MIC, organism code HH; settings: Table 1B, in µg/mL (unit assumed)
In short: as §1

[9] = system: Micrococcus luteus ATCC 4698; test: In vitro agar dilution MIC, organism code PP; settings: Table 1B, in µg/mL (unit assumed)
In short: as §1

[10] = system: Staphylococcus aureus CMX 642A; test: In vitro agar dilution MIC, organism code DD; settings: Table 1B, unit assumed
In short: as §1

[11] = system: Staphylococcus aureus CMX 553; test: In vitro agar dilution MIC, organism code FF; settings: Table 1B, unit assumed
In short: as §1

[12] = system: Streptococcus pyogenes EES61; test: In vitro agar dilution MIC, organism code LL; settings: Table 1B, unit assumed
In short: as §1

Escherichia coli JUHL = test: In vitro agar dilution MIC, organism code QQ; settings: Table 1B, in µg/mL (unit assumed)
In short: as §1

[13] = system: Staphylococcus aureus A5177; test: In vitro agar dilution MIC, organism code BB; settings: Table 1B, in µg/mL (unit assumed)
In short: as §1

[14] = system: Staphylococcus aureus ATCC 6538P; test: In vitro agar dilution MIC, organism code AA; settings: Table 1B, unit assumed
In short: as §1

[15] = system: Streptococcus pneumoniae ATCC 6303; test: In vitro agar dilution MIC, organism code XX; settings: Table 1B, unit assumed
In short: as §1

Candida albicans CCH 442 = test: In vitro agar dilution MIC, organism code TT; settings: Table 1B, unit assumed
In short: as §1

[16] = system: Staphylococcus aureus NCTC10649M; test: In vitro agar dilution MIC, organism code EE; settings: Table 1B, unit assumed
In short: as §1

Escherichia coli DC-2 = test: In vitro agar dilution MIC, organism code SS; settings: Table 1B, unit assumed
In short: as §1

[17] = system: Streptococcus pneumoniae 5979; test: In vitro agar dilution MIC, organism code ZZ; settings: Table 1B, unit assumed
In short: as §1

[18] = system: Streptococcus pneumoniae 5649; test: In vitro agar dilution MIC, organism code ZZA; settings: Table 1B, unit assumed
In short: as §1

Escherichia coli SS = test: In vitro agar dilution MIC, organism code RR; settings: Table 1B, in µg/mL (unit assumed)
In short: as §1

[19] = system: Nocardia asteroides ATCC 9970; test: In vitro agar dilution MIC, organism code VV; settings: Table 1B, in µg/mL (unit assumed)
In short: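 Strains were stamped onto compound-containing Brain Heart Infusion agar and grown at 35-37° C for 20 to 24 hours. Lowest concentration without growth, or with only haze or scattered colonies, defined the MIC.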

[20] = system: Streptococcus agalactiae CMX 508; test: In vitro agar dilution MIC, organism code KK; settings: Table 1B, unit assumed
In short: as §1

[21] = system: Streptococcus pyogenes 930; test: In vitro agar dilution MIC, organism code MM; settings: Table 1B, unit assumed
In short: as §1

[22] = system: Micrococcus luteus ATCC 9341; test: In vitro agar dilution MIC, organism code OO; settings: Table 1B, unit assumed
In short: as §1

[23] = system: Haemophilis influenzae DILL AMP R; test: In vitro agar dilution MIC, organism code WW; settings: Table 1B, unit assumed
In short: as §1

SMILES	MIC [1] [µg/mL]	MIC [2] [µg/mL]	MIC [3] [µg/mL]	MIC [4] [µg/mL]	MIC [5]	MIC [6] [µg/mL]	MIC [7] [µg/mL]	MIC [8]	MIC [9]	MIC [10] [µg/mL]	MIC [11] [µg/mL]	MIC [12] [µg/mL]	MIC (Escherichia coli JUHL)	MIC [13]	MIC [14] [µg/mL]	MIC [15] [µg/mL]	MIC (Candida albicans CCH 442) [µg/mL]	MIC [16] [µg/mL]	MIC (Escherichia coli DC-2) [µg/mL]	MIC [17] [µg/mL]	further results
CC[C@H]1OC(=O)[C@@](C)(F)C(=O)[C@H](C)[C@@H](O[C@@H]2O[C@H](C)C[C@H](N(C)C)[C@H]2O)[C@](C)(OC/C=C/c2cnc3ccc(C=NN)cc3c2)C[C@@H](C)C(=O)[C@H](C)[C@H]2NC(=O)O[C@@]21C [Example 19]	> 100	0.2 (≈ 0.242 µM)	≤ 0.005	0.05 (≈ 0.0605 µM)	0.78	> 100	0.06 (≈ 0.0726 µM)	0.2	0.1	0.2 (≈ 0.242 µM)	0.2 (≈ 0.242 µM)	0.02 (≈ 0.0242 µM)	100	0.2	0.1 (≈ 0.121 µM)	0.06 (≈ 0.0726 µM)	> 100	0.2 (≈ 0.242 µM)	100 (≈ 121 µM)	1 (≈ 1.21 µM)	MIC [18]: 0.5 µg/mL (≈ 0.605 µM); MIC (Escherichia coli SS): 0.78; MIC [19]: 0.02; MIC [20]: 0.02 µg/mL (≈ 0.0242 µM); MIC [21]: 1.56 µg/mL (≈ 1.89 µM); MIC [22]: 0.02 µg/mL (≈ 0.0242 µM); MIC [23]: 2 µg/mL (≈ 2.42 µM)
CC[C@H]1OC(=O)[C@@](C)(F)C(=O)[C@H](C)[C@@H](O[C@@H]2O[C@H](C)C[C@H](N(C)C)[C@H]2O)[C@](C)(OC/C=C/c2cnc3ccc(C=NN=C(C)C)cc3c2)C[C@@H](C)C(=O)[C@H](C)[C@H]2NC(=O)O[C@@]21C [Example 20]	> 100	0.2 (≈ 0.231 µM)	0.01 (≈ 0.0115 µM)	0.1 (≈ 0.115 µM)	0.78	> 100	0.06 (≈ 0.0693 µM)	0.2	0.1	0.1 (≈ 0.115 µM)	0.1 (≈ 0.115 µM)	0.02 (≈ 0.0231 µM)	> 100	0.1	0.1 (≈ 0.115 µM)	0.125 (≈ 0.144 µM)	> 100	0.2 (≈ 0.231 µM)	> 100	2 (≈ 2.31 µM)	MIC [18]: 1 µg/mL (≈ 1.15 µM); MIC (Escherichia coli SS): 0.78; MIC [19]: 0.02; MIC [20]: 0.02 µg/mL (≈ 0.0231 µM); MIC [21]: 1.56 µg/mL (≈ 1.8 µM); MIC [22]: 0.02 µg/mL (≈ 0.0231 µM); MIC [23]: 4 µg/mL (≈ 4.62 µM)
CC[C@H]1OC(=O)C(C)(F)C(=O)[C@H](C)[C@@H](O[C@@H]2O[C@H](C)C[C@H](N(C)C)[C@H]2O)[C@](C)(OCC#CC(=O)c2ccccc2)C[C@@H](C)C(=O)[C@H](C)[C@H]2NC(=O)O[C@@]21C (stereo partly drawn) [Example 23]	> 100	1.56 (≈ 2.06 µM)	0.1 (≈ 0.132 µM)	0.78 (≈ 1.03 µM)	3.1	> 100	0.03 (≈ 0.0395 µM)	1.56	1.56	1.56 (≈ 2.06 µM)	0.78 (≈ 1.03 µM)	0.39 (≈ 0.514 µM)	> 100	0.78	1.56 (≈ 2.06 µM)	0.03 (≈ 0.0395 µM)	> 100	1.56 (≈ 2.06 µM)	> 100	> 128	MIC [18]: 2 µg/mL (≈ 2.64 µM); MIC (Escherichia coli SS): 3.1; MIC [19]: 0.78; MIC [20]: 0.39 µg/mL (≈ 0.514 µM); MIC [21]: > 100 µg/mL; MIC [22]: 0.2 µg/mL (≈ 0.264 µM); MIC [23]: 8 µg/mL (≈ 10.5 µM)
CC[C@H]1OC(=O)C(C)(F)C(=O)[C@H](C)[C@@H](O[C@@H]2O[C@H](C)C[C@H](N(C)C)[C@H]2O)[C@](C)(OCC#CC(=O)c2cccs2)C[C@@H](C)C(=O)[C@H](C)[C@H]2NC(=O)O[C@@]21C (stereo partly drawn) [Example 24]	> 100	3.1 (≈ 4.05 µM)	0.2 (≈ 0.261 µM)	0.39 (≈ 0.51 µM)	3.1	> 100	0.03 (≈ 0.0392 µM)	1.56	0.78	1.56 (≈ 2.04 µM)	1.56 (≈ 2.04 µM)	0.39 (≈ 0.51 µM)	100	1.56	1.56 (≈ 2.04 µM)	0.06 (≈ 0.0784 µM)	> 100	1.56 (≈ 2.04 µM)	> 100	> 64	MIC [18]: 1 µg/mL (≈ 1.31 µM); MIC (Escherichia coli SS): 3.1; MIC [19]: 0.78; MIC [20]: 0.39 µg/mL (≈ 0.51 µM); MIC [21]: 100 µg/mL (≈ 131 µM); MIC [22]: 0.2 µg/mL (≈ 0.261 µM); MIC [23]: 16 µg/mL (≈ 20.9 µM)
CC[C@H]1OC(=O)C(C)(F)C(=O)[C@H](C)[C@@H](O[C@@H]2O[C@H](C)C[C@H](N(C)C)[C@H]2O)[C@](C)(OCC#CC(=O)c2ccc(Cl)nc2)C[C@@H](C)C(=O)[C@H](C)[C@H]2NC(=O)O[C@@]21C (stereo partly drawn) [Example 25]	> 100	0.39 (≈ 0.491 µM)	0.1 (≈ 0.126 µM)	0.2 (≈ 0.252 µM)	0.78	> 100	≤ 0.004	0.39	0.39	0.39 (≈ 0.491 µM)	0.39 (≈ 0.491 µM)	0.1 (≈ 0.126 µM)	> 100	0.39	0.39 (≈ 0.491 µM)	≤ 0.004	> 100	0.78 (≈ 0.982 µM)	> 100	0.06 (≈ 0.0755 µM)	MIC [18]: 0.06 µg/mL (≈ 0.0755 µM); MIC (Escherichia coli SS): 3.1; MIC [19]: 0.2; MIC [20]: 0.1 µg/mL (≈ 0.126 µM); MIC [21]: 6.2 µg/mL (≈ 7.81 µM); MIC [22]: 0.2 µg/mL (≈ 0.252 µM); MIC [23]: 2 µg/mL (≈ 2.52 µM)
